Data set [1] concerns CDK2/CycE. The experiment in a line: CDK2/CycE kinase assay. Format: biochemical, human. Particulars: ratio of IC50 values CDK2/CDK9, in-house assays.
The target of data set [2] is CDK9/CycT1 (Homo sapiens, UniProt P50750). The experiment in a line: CDK9/CycT1 kinase assay. Format: biochemical.
Data set [3] deals with HeLa cells. The experiment in a line: Proliferation assay HeLa. As to conditions: Homo sapiens, 96 h, read-out: HeLa IC50. Format: cell-based.
Data set [4] in a line: Metabolic stability in mouse liver microsomes. Format: in vitro ADME.
Data set [5] is described as follows: Metabolic stability in human liver microsomes. Format: in vitro ADME.
Data set [6] can be described thus: Metabolic stability in rat liver microsomes. Particulars: rat, liver microsomes. Format: in vitro ADME.
Data set [7] relates to MOLM‐13 human AML model. As to the kind of experiment: MOLM‐13 human AML xenograft model in mice. Format: in vivo, mouse. Particulars: for T/C ratio: end of the experiment.
Data set [8] concerns MOLM‐13 cells. As to the kind of experiment: Proliferation assay MOLM‐13. Format: cell-based. As to conditions: Homo sapiens, MOLM-13, 96 h, read-out: MOLM‐13 IC50.

Structures are written as SMILES.

Sequence of CDK9/CycT1 (P50750 whole entry): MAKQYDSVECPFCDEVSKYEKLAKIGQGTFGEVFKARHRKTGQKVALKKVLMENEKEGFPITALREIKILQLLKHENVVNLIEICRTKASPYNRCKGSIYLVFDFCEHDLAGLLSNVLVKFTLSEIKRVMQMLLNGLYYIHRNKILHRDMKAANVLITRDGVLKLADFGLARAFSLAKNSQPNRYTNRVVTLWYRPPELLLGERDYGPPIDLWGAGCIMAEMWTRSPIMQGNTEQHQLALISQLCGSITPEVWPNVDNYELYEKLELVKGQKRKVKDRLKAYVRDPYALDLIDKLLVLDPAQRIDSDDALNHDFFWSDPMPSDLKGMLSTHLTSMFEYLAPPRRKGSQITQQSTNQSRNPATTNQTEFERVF
Sequence of CDK9/CycT1 (O60563 whole entry partner): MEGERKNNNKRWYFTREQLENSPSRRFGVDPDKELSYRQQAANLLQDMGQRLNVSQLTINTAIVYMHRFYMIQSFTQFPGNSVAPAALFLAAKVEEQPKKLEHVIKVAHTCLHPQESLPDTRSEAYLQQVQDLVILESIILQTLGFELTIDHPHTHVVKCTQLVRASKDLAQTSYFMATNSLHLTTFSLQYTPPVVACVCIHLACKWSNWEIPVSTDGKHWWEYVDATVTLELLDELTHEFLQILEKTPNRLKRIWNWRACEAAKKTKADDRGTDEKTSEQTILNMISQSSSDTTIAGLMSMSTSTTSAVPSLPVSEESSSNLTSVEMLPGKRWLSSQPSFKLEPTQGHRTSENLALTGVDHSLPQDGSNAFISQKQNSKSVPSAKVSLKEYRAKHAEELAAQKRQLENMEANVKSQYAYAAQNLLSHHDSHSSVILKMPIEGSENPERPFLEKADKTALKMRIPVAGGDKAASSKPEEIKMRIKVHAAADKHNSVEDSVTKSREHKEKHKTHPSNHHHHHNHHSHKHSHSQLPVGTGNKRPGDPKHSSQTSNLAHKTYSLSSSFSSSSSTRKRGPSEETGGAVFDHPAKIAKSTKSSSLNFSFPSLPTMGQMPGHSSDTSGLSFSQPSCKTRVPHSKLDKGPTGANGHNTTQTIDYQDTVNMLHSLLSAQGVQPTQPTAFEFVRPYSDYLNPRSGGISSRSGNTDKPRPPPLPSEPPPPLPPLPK

Consider `COc1cc(F)ccc1-c1ncnc(Nc2cccc(C(F)S(C)(=O)=O)c2)n1` (racemic) [Compound 12, (rac)‐4‐(4‐Fluoro‐2‐methoxyphenyl)‐N‐{3‐[fluoro(methylsulfonyl)methyl]phenyl}‐1,3,5‐triazin‐2‐amine], for which the “Selectivity vs. CDK2, ratio of IC50 values” (shortened to “Selectivity vs. CDK2, ratio”) in data set [1] worked out at 13. The IC50 in data set [2] was found to be 20 nM; in data set [3] it was 890 nM.

For `COc1cc(F)ccc1-c1ncnc(Nc2cccc(CCS(C)(=O)=O)c2)n1` [Compound 6, 4‐(4‐Fluoro‐2‐methoxyphenyl)‐N‐{3‐[2‐(methylsulfonyl)ethyl]phenyl}‐1,3,5‐triazin‐2‐amine], the “Selectivity vs. CDK2, ratio” value in data set [1] was found to be 12. Besides, the values for the IC50 in data set [2] and in data set [3] were 49 nM and 2200 nM, respectively.

Turning to `COc1cc(F)ccc1-c1ncnc(Nc2cccc(C(C)S(C)(=O)=O)c2)n1` (racemic) [Compound 10, (rac)‐4‐(4‐Fluoro‐2‐methoxyphenyl)‐N‐{3‐[1‐(methylsulfonyl)ethyl]phenyl}‐1,3,5‐triazin‐2‐amine], the “Selectivity vs. CDK2, ratio” value in data set [1] is 21. The IC50 in data set [2] was 85 nM; in data set [3] it was 3200 nM.

For `NS(=O)(=O)Cc1cccc(Nc2ncnc(-c3ccc(F)cc3OCc3ccccc3)n2)c1` [Compound 23, 1‐[3‐({4‐[2‐(Benzyloxy)‐4‐fluorophenyl]‐1,3,5‐triazin‐2‐yl}amino)phenyl]methanesulfonamide], the “Selectivity vs. CDK2, ratio” value in data set [1] was found to be 34. Besides, the figures for the IC50 in data set [2] and in data set [3] were 4 nM and 100 nM, respectively. Further, the recovery at 60 min in data set [4] turned out to be 0.2%; in data set [5], 0%; in data set [6], 0%.

On to `COc1ccccc1-c1ncnc(Nc2cccc(CS(N)(=O)=O)c2)n1` [Compound 14, 1‐(3‐{[4‐(2‐Methoxyphenyl)‐1,3,5‐triazin‐2‐yl]amino}phenyl)methanesulfonamide], for which, in data set [1], the “Selectivity vs. CDK2, ratio” value is reported as 62. The IC50 in data set [2] was found to be 23 nM; in data set [3] it was 1600 nM.

Take `COc1cc(F)ccc1-c1ncnc(Nc2ccc3c(c2)S(=O)(=O)CC3)n1` [Compound 7, N‐( 1,1‐Dioxido‐2,3‐dihydro‐1‐benzothien‐6‐yl)‐4‐(4‐fluoro‐2‐methoxyphenyl)‐1,3,5‐triazin‐2‐amine]: the “Selectivity vs. CDK2, ratio” value in data set [1] turned out to be 22. Moreover, the figures for the IC50 in data set [2] and in data set [3] were 7 nM and 550 nM, respectively.

`COc1cc(F)ccc1-c1ncnc(Nc2cccc(CS(=O)(=O)C(C)(C)C)c2)n1` [Compound 9, N ‐{3‐[(tertButylsulfonyl)methyl]phenyl}‐4‐(4‐fluoro‐2‐methoxyphenyl)‐1,3,5‐triazin‐2‐amine]: in data set [1], the “Selectivity vs. CDK2, ratio” value is given as 43. The IC50 in data set [3] came out at 2900 nM.

On to `COc1cc(F)ccc1-c1ncnc(Nc2cccc(S(C)(=O)=O)c2)n1` [Compound 5, 4‐(4‐Fluoro‐2‐methoxyphenyl)‐N‐[3‐(methylsulfonyl)phenyl]‐1,3,5‐triazin‐2‐amine], for which the “Selectivity vs. CDK2, ratio” value in data set [1] is recorded as 19. Moreover, the figures for the IC50 in data set [2] and in data set [3] were 32 nM and 1340 nM, respectively.

On to `COc1cc(F)ccc1-c1ncnc(Nc2ccc3c(c2)CS(=O)(=O)C3)n1` [Compound 8, N‐( 2,2‐Dioxido‐1,3‐dihydro‐2‐benzothien‐5‐yl)‐4‐(4‐fluoro‐2‐methoxyphenyl)‐1,3,5‐triazin‐2‐amine], for which the “Selectivity vs. CDK2, ratio” value in data set [1] is listed as less than 1. In addition, the IC50 worked out at 51 nM in data set [2] and 11000 nM in data set [3].

With `COc1cc(Cl)ccc1-c1ncnc(Nc2cccc(CS(N)(=O)=O)c2)n1` [Compound 15, 1‐(3‐{[4‐(4‐Chloro‐2‐methoxyphenyl)‐1,3,5‐triazin‐2‐yl]amino}phenyl)methanesulfonamide], the “Selectivity vs. CDK2, ratio” value in data set [1] worked out at 108. The IC50 in data set [2] is 27 nM; in data set [3], 3800 nM.

With `NS(=O)(=O)Cc1cccc(Nc2ncnc(-c3ccc(F)cc3F)n2)c1` [Compound 18, 1‐(3‐{[4‐(2,4‐Difluorophenyl)‐1,3,5‐triazin‐2‐yl]amino}phenyl)methanesulfonamide], the “Selectivity vs. CDK2, ratio” value in data set [1] is listed as 16. The IC50 in data set [2] was 270 nM; in data set [3], greater than 3000 nM.

As for `COc1cc(F)ccc1-c1ncnc(Nc2cccc(CS(N)(=O)=O)c2)n1.Cl` [BAY‐958 hydrochloride, 1‐(3‐{[4‐(4‐Fluoro‐2‐methoxyphenyl)‐1,3,5‐triazin‐2‐yl]amino}phenyl)methanesulfonamide hydrochloride], the T/C ratio in data set [7] (30 mg kg^−1 daily oral) was 0.16; in data set [7] (40 mg kg^−1 daily oral), 0.12. In data set [7] (30 or 40 mg kg^−1 daily oral), the body weight change entry was “less than 10%”. Further, the fatal toxicities result in data set [7] (30 or 40 mg kg^−1 daily oral) was “no fatal toxicities”.

On to `COCc1ccccc1-c1ncnc(Nc2cccc(CS(N)(=O)=O)c2)n1` [Compound 20, 1‐[3‐({4‐[2‐(Methoxymethyl)phenyl]‐1,3,5‐triazin‐2‐yl}amino)phenyl]methanesulfonamide], for which the “Selectivity vs. CDK2, ratio” value in data set [1] was greater than 11. Moreover, in data set [2], the IC50 worked out at 1700 nM.

Take `CC(=O)Nc1cc(F)ccc1-c1ncnc(Nc2cccc(CS(N)(=O)=O)c2)n1` [Compound 21, N ‐[5‐Fluoro‐2‐(4‐{[3‐(sulfamoylmethyl)phenyl]amino}‐1,3,5‐triazin‐2‐yl)phenyl]acetamide]: in data set [1], the “Selectivity vs. CDK2, ratio” value is given as less than 1. In addition, the IC50 in data set [3] amounted to 3000 nM.

`NS(=O)(=O)Cc1cccc(Nc2ncnc(-c3ccc(F)cc3O)n2)c1` [Compound 17, 1‐(3‐{[4‐(4‐Fluoro‐2‐hydroxyphenyl)‐1,3,5‐triazin‐2‐yl]amino}phenyl)methanesulfonamide]: in data set [1], the “Selectivity vs. CDK2, ratio” value is listed as 6. For the same molecule, the concentration for half-maximal inhibition (IC50) came to 130 nM in data set [2] and 2900 nM in data set [3].

For `COc1cc(F)ccc1-c1ncnc(Nc2cccc(CS(C)(=O)=O)c2)n1` [Compound 4, 4‐(4‐Fluoro‐2‐methoxyphenyl)‐N‐{3‐[(methylsulfonyl)methyl]phenyl}‐1,3,5‐triazin‐2‐amine], the IC50 in data set [8] was found to be 130 nM.

With `COc1cc(F)ccc1-c1ncnc(Nc2cccc(C(F)(F)S(C)(=O)=O)c2)n1` [Compound 13, N ‐{3‐[Difluoro(methylsulfonyl)methyl]phenyl}‐4‐(4‐fluoro‐2‐methoxyphenyl)‐1,3,5‐triazin‐2‐amine], in data set [1], the “Selectivity vs. CDK2, ratio” value was 19. For the same molecule, the IC50 stood at 67 nM in data set [2] and 4200 nM in data set [3].

`COc1cnccc1-c1ncnc(Nc2cccc(CS(N)(=O)=O)c2)n1` [Compound 16, 1‐(3‐{[4‐(3‐Methoxypyridin‐4‐yl)‐1,3,5‐triazin‐2‐yl]amino}phenyl)methanesulfonamide]: the “Selectivity vs. CDK2, ratio” value in data set [1] came to 14. This molecule also registered a half-inhibitory concentration (IC50) in data set [2] of 1800 nM.

As for `COc1cc(F)ccc1-c1ncnc(Nc2cccc(C(C)(C)S(C)(=O)=O)c2)n1` [Compound 11, 4‐(4‐Fluoro‐2‐methoxyphenyl)‐N‐{3‐[2‐(methylsulfonyl)propan‐2‐yl]phenyl}‐1,3,5‐triazin‐2‐amine], in data set [1], the “Selectivity vs. CDK2, ratio” value is listed as greater than 20. In addition, in data set [2], the IC50 came out at 1000 nM.

Turning to `NS(=O)(=O)Cc1cccc(Nc2ncnc(-c3ccccc3OC(F)(F)F)n2)c1` [Compound 19, 1‐[3‐({4‐[2‐(Trifluoromethoxy)phenyl]‐1,3,5‐triazin‐2‐yl}amino)phenyl]methanesulfonamide], the “Selectivity vs. CDK2, ratio” value in data set [1] stood at 20. The half-inhibitory concentration (IC50) is 620 nM in data set [2] and greater than 3000 nM in data set [3].

For `NS(=O)(=O)Cc1cccc(Nc2ncnc(-c3ccc(F)cc3C(F)(F)F)n2)c1` [Compound 22, 1‐[3‐({4‐[4‐Fluoro‐2‐(trifluoromethyl)phenyl]‐1,3,5‐triazin‐2‐yl}amino)phenyl]methanesulfonamide], the “Selectivity vs. CDK2, ratio” value in data set [1] was 1.

Values taken from paper PMC5698704 (Chemmedchem, 2017).
